Where no end group is shown, it is not given here.
How the values were obtained:
[1] = tested on: CRF(1–16)/R1ΔN chimera of CRF1R (HEK 293 cells, transient expression); conditions: ref Nielsen et al. 2000; cited from earlier work
RAW 264.7 cells = test: Proliferation assay; type: cell-based; conditions: 1 μM, third day of culture (72 h), MTT; n = 3 experiments
3T3L1 mature adipocytes = test: CXCL1 release from differentiated 3T3L1 white adipocytes; type: cell-based, mouse; conditions: 10 nM CRF alone, 24 h, differentiated white 3T3L1 adipocytes, ELISA

Compound	block of the constitutive activity (activation) of the CRF(1–16)/R1ΔN chimera [1]	proliferation rate of RAW 264.7 cells compared to vehicle-treated cells (RAW 264.7 cells)	production of CXCL1 compared to untreated (control) cells (3T3L1 mature adipocytes)
CCCCN(CC)c1nc(C)nc2c1c(C)c(C)n2-c1c(C)cc(C)cc1C [antalarmin]	blocked	–	–
astressin	not blocked	levels similar to those achieved with astressin	–
corticotropin-releasing factor (SEEPPISLDLTFHLLREVLEMARAEQLAQQAHSNRKLMEII; ends and bridges not checked; UniProt P06850 154-194, looked up) [CRF]	–	–	significantly reduced

From publication PMC7772748 (Amino acids, 2020)
